Measured values published in patent US20140221286A1, “SODIUM CHANNEL BLOCKERS REDUCE GLUCAGON SECRETION” (Gilead Sciences, Inc., priority 2011, published 2014).

Tests used:
human pancreatic islets [1] = assay: Glucagon secretion in human pancreatic islets under low glucose (3 mM), ELISA; format: cell-based; conditions: 3 mM glucose
rat pancreatic islets = assay: Veratridine-induced glucagon secretion in rat pancreatic islets; format: cell-based; conditions: veratridine 30 μM
human pancreatic islets [2] = assay: Veratridine-induced glucagon secretion in human pancreatic islets; format: cell-based; conditions: veratridine 30 μM
α-TC1 clone 9 cells = format: cell-based; conditions: for Glucagon Secretion % Inhibition: veratridine-induced (30 μM for 1 hour), at a given concentration (not given)
Protocol: Voltage-dependent block (VDB) of […] was determined by whole-cell voltage-clamp recordings of sodium current using a QPatch 16× automated electrophysiological system in HEK 293 cells overexpressing Nav 1.3 and Nav 1.7 sodium channels, respectively. VDB of peak current was measured using an 8 s conditioning prepulse (to -55 mV for NaV1.3 and to −60 mV for […]) followed by a test pulse (0 mV, 20 ms). Currents are normalized to the peak current recorded in the absence of drug and expressed as percent inhibition. […] Glucagon secretion in the cells was induced by the treatment with veratridine at 30 μM for 1 hour in Krebs-Ringer buffer containing 0.1% BSA. Percent inhibition of glucagon secretion by Na channel blockers was calculated from the reduction of veratridine-induced glucagon secretion in the absence of drug.
Cells were seeded at 0.4×10^5/well in 96-well plates and allowed to recover for 1 day. The media was then changed to serum-free DMEM and incubated overnight. Cells were then treated with sodium-channel blockers in the presence of veratridine (15 μM) in Krebs-Ringer buffer containing 0.1% BSA and 3 mM glucose for 1 h. Supernatants were collected and stored at −80° C. until analysis. Glucagon levels were measured by an ELISA kit.

[3] = test system: rat isolated pancreatic α-cell; assay: Spontaneous electrical activity of isolated pancreatic α-cells (membrane potential recording); format: cell-based
Protocol: Acutely isolated pancreatic islets were allowed to recover overnight at 37° C./5% CO2 in Islet Media (RMPI 1640 supplemented with 10 mM HEPES, 1 mM sodium pyruvate, 10% FBS, 100 U/mL penicillin, 100 μg/mL streptomycin, 2 mM L-glutamine). The islets were resuspended and then centrifuged for 3 minutes at 200×g. […] The number of live cells was counted and diluted to 1×10^5 with Islet Media. […]
Membrane potential and ion channel currents were recorded 24-72 hours after dispersion using the perforated patch configuration. […] Series resistance (Rs) was monitored using a voltage step from −70 mV to 0 mV (5 ms, 0.5 Hz) and was allowed to stabilize prior to beginning the experiment (Rs<30 MOhm).
The identity of the α-cell was confirmed using cell size (membrane capacitance <6 pF) and the presence of electrical activity in low (3 mM) extracellular glucose, which are hallmarks of dispersed α-cells. […] All recordings were made using pClamp 10.2 and were analyzed using Microsoft Excel 2003, Graphpad Prism7 or OriginPro7.
Recordings of membrane potential were made at 32° C. […] Representative records (30 sec) were analyzed using the event detection feature (threshold of 10 mV) to quantitate the spontaneous firing frequency and total charge movement. The membrane potential between events was measured for changes induced by the compound. […]

ZDF diabetic rats = assay: ZDF diabetic rats, animal model of type 2 diabetes; format: in vivo, rat; conditions: for water consumption (surrogate marker for diabetes) / HbA1c levels versus vehicle group / fasting plasma glucose levels versus vehicle: in Purina 5008 diet; for water consumption (surrogate marker for diabetes): during diabetes development; for HbA1c levels versus vehicle group: weeks 4, 6 and 8; for fasting plasma glucose levels versus vehicle: weeks 7 and 9
Protocol: All sections from fluorescent staining were viewed under fluorescent microscope and the stained areas were digitally photographed at a magnification of 20×. The images taken at different magnification were normalized using the standard ruler grade (S1 Finder Graticule, 68040, Electron Microscopy Science, Hatfield, Pa.). Analyses of islet areas and entire section areas were performed using ImageJ software (NIH, MD). Three sections from each of 6 animals per treatment group were analyzed. Data are presented as mean±SEM. *, p<0.05; **, p<0.01; ***, p<0.001 by One-way ANOVA.
Male ZDF Leprfa/Crl rats were received at 5 weeks of age from Charles River Laboratories Inc., (Wilmington, Mass.) and were acclimated until study initiation at 6 weeks of age. Drugs were given to the animals in Purina 5008 for 10 weeks at doses approximately 170 mg/kg/d of ranolazine, 0.6 mg/kg/d of compound A and 30 mg/kg/d of sitagliptin as positive control. Fasting (12-14 h fast) and non-fasting blood samples were obtained by tail-nick and blood glucose was measured using a Freestyle Lite glucose meter (Abbott Laboratories Inc., Abbott Park, Ill.). HbA1c levels were monitored every other week. Twenty four hour water consumption as surrogate marker for diabetes for each rat was measured at least once per week.

Structure (SMILES) | maximal reduction of glucagon secretion as compared to the vehicle control (human pancreatic islets [1]; at 30 μM) | reduction of veratridine-induced glucagon secretion (in words) (rat pancreatic islets) | reduction of veratridine-induced glucagon secretion (human pancreatic islets [2]; at 30 μM) | Glucagon Secretion % Inhibition (α-TC1 clone 9 cells) | reduction of spontaneous electrical activity ([3]; 10 μM) | insulin staining per islet (ZDF diabetic rats; 10 weeks treatment) | insulin/glucagon ratio (ZDF diabetic rats; 10 weeks treatment) | islet area/pancreas area (ZDF diabetic rats; 10 weeks treatment) | staining of glucagon per islet versus vehicle (ZDF diabetic rats; 10 weeks treatment) | water consumption (surrogate marker for diabetes) (ZDF diabetic rats) | HbA1c levels versus vehicle group (ZDF diabetic rats) | fasting plasma glucose levels versus vehicle (ZDF diabetic rats) | maximal reduction of glucagon secretion as compared to the vehicle control (human pancreatic islets [1]; at 3 μM) | reduction of veratridine-induced glucagon secretion (human pancreatic islets [2]; at 3 μM) | reduction of veratridine-induced increase of glucagon secretion (α-TC1 clone 9 cells; veratridine 15 μM, at 3 μM) | reduction of spontaneous electrical activity ([3]; at 0.3 μM)
COc1ccccc1OCC(O)CN1CCN(CC(=O)Nc2c(C)cccc2C)CC1 (racemic) [Ranolazine, ±-N-(2,6-dimethylphenyl)-4-[2-hydroxy-3-(2-methoxyphenoxy)-propyl]-1-piperazineacetamide] | 36±4% | concentration-dependently reduced | 36±9% | 29.99% | 44% | 91.2±1.5% | 12.1±2.4 | 0.36±0.1% | significantly less | significantly prevented the increase | significantly lower | significantly lower |  |  |  | 
FC(F)(F)Oc1ccc(-c2ccc3nnc(C(F)(F)F)n3c2)cc1 [Compound A, 6-(4-(trifluoromethoxy)phenyl)-3-(trifluoromethyl)-[1,2,4]triazolo[4,3-α]pyridine] |  | concentration-dependently reduced |  | 74.17% |  | 90.0±2.8% |  | 0.51±0.16% | significantly less | significantly prevented the increase | significantly lower | significantly lower | 51±9% | 58±7% | 70±4% | 75%
